Source: patent publication US20090124659A1, “Combination therapy using 1-aminocyclohexane derivatives and acetylcholinesterase and inhibitors” (priority 2002, published 2009)
Counter-ions that a name gives are not always drawn.

Key:
[1] = system: patients with moderate-to-severe AD; conditions: Week 24; memantine 20 mg/day or placebo added to stable donepezil
[2] = system: patients with moderate-to-severe AD; conditions: Week 24; memantine 20 mg/day or placebo added to stable donepezil; remark: listed apart in the source
[3] = 5 mg/day for 28 days in healthy subjects; cited from earlier work
[4] = system: patients with moderate-to-severe AD; conditions: Week 24; memantine 20 mg/day or placebo added to stable donepezil; remark: listed apart in the source
[5] = system: patients with moderate-to-severe AD; conditions: 24 weeks; groups of 202 and 201
[6] = cited from earlier work
clinical = conditions: both, human, plasma, po
[7] = system: human neuroblastoma cells SK-N-SH; assay: Cell viability and toxicity, MTT and LDH assays; conditions: memantine 1-4 μM
healthy young subjects = conditions: single 10 mg memantine alone or with multiple daily doses of 10 mg donepezil
[8] = system: human neuroblastoma cells SK-N-SH; assay: APP processing in cultured SK-N-SH cells (Western immunoblotting or ELISA); type: cell-based; conditions: memantine 1-4 μM
Protocol: NMDA receptors have been also implicated in the signalling cascades affecting or affected by APP processing. […] The present inventor and co-workers have studied the effect of memantine (NMDA receptor antagonist) on the processing of APP in cultured human neuroblastoma cells SK-N-SH. Cells were treated with memantine (1-4 μM) or vehicle, and the levels of sAPP and βAP40 in the conditioned media and the total intracellular APP were measured by Western immunoblotting or ELISA using specific antibodies.

cytochrome P450 system = conditions: in vitro studies; cited from earlier work
[9] = humans; cited from earlier work
[10] = system: human neuroblastoma cells; conditions: in the absence of any detectable cellular damage or toxicity; cited from earlier work

## COc1cc2c(cc1OC)C(=O)C(CC1CCN(Cc3ccccc3)CC1)C2 (racemic) [donepezil, (R,S)-1-benzyl-4-[(5,6-dimethoxy-1-indanon)-2yl]-methylpiperidine hydrochloride]
[1]
  CIBIC-Plus at Endpoint (LOCF), LS mean (SD): 4.7 (1.05)
[2]
  SIB, change from Baseline to Endpoint (LOCF), LS mean change (SE): −2.5 (0.69)
[3]
  time of peak plasma concentrations: approximately 3 hours
[4]
  ADCS-ADL, change from Baseline to Endpoint (LOCF), LS mean change (SE): −3.4 (0.51)
[5]
  Agitation, %: (11.9) %
  Confusion, %: (2.0) %
  Constipation, %: (1.5) %
  Coughing, %: (1.0) %
  Depression, %: (3.0) %
  Diarrhoea, %: (8.5) %
  Dizziness, %: (8.0) %
  Fall, %: (7.0) %
  Fatigue, %: (3.5) %
  Gait abnormal, %: (1.0) %
  Headache, %: (2.5) %
  Hypertension, %: (1.5) %
  Inflicted injury, %: (8.0) %
  Influenza-like symptoms, %: (6.5) %
  Oedema peripheral, %: (4.0) %
  Pain, %: (0.5) %
  Pat. with any AE, %: (71.6) %
  Somnolence, %: (3.5) %
  Upper resp. tract infection, %: (6.5) %
  Urinary incontinence, %: (3.0) %
  Urinary tract infection, %: (5.0) %
  Vomiting, %: (3.0) %

## CC12CC3CC(C)(C1)CC(N)(C3)C2 [memantine, 1-amino-3,5-dimethyl adamantane]
[6]; after administration of 14C memantine
  dose recovered, mainly in the urine: 84%
[6]; in vivo, po
  absolute bioavailability: approximately 100%
[6]; in vivo
  half-life: 60 to 80 h
clinical
  Cmax: 13 ng/mL
clinical; 10 mg
  Cmax: 12.8 ng/mL
  Tmax: 6.5 h
[7]
  cell viability and toxicity (MTT and LDH assays): not affected
Healthy young subjects
  safety and tolerability: safe and well-tolerated
[8]
  levels of total intracellular APP: without affecting
  sAPP level in the conditioned media: decrease
  βAP40 level in the conditioned media: decrease
Cytochrome P450 system
  potential of drug interactions with drugs metabolized via the cytochrome P450 system: low potential
[9]
  therapeutically effective circulating concentration: 1 µM

## Cl.Nc1c2c(nc3ccccc13)CCCC2 [tacrine, 1,2,3,4-tetrahydro-9-aminoacridine hydrochloride]
[10]
  release of sAPPα, total βAP, βAP40 and βAP42: reduce
